# US20250171438A1 (Agios Pharmaceuticals, Inc., priority 2022, published 2025)
# Target: T1, human PAH with the R408W mutation (Homo sapiens, UniProt P00439, R408W)
# T1 construct: expressed in transfected cells
# T1 sequence (P00439 1-452 R408W): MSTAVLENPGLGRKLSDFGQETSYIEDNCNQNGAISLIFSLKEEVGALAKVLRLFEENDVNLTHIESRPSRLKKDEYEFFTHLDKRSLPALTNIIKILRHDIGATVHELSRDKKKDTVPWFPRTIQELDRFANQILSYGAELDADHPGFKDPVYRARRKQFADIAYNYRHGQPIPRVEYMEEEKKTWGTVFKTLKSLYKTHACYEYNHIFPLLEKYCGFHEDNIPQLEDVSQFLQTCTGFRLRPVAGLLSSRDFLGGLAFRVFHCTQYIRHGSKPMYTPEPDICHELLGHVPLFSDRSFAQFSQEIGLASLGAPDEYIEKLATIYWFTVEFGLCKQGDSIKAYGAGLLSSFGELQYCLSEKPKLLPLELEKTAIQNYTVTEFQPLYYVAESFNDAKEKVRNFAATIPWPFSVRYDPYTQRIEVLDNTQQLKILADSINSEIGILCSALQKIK
# Assay: Cell Based Phenylalanine Flux Assay
# Conditions: A375 cells expressing human R408W PAH; 24 hrs compound incubation; 13C-Tyrosine by LC-MS; average where tested multiple times; read-out: AC50
row,AC50,SMILES
1,1000 to 5000 nM,"O=C(c1cnc(-c2ccccn2)o1)N1CCc2[nH]cnc2[C@@H]1c1nc2ccccc2s1 [Example 1318, (R)-(4-(benzo[d]thiazol-2-yl)-6,7-dihydro-1H-imidazo[4,5-c]pyridin-5(4H)-yl)(2-(pyridin-2-yl)oxazol-5-yl)methanone]"
2,< 500 nM,"Cc1ncoc1C(=O)N1CCc2[nH]cnc2[C@H]1c1nc2c(F)cccc2s1 [Example 1319, (S)-(4-(4-fluorobenzo[d]thiazol-2-yl)-6,7-dihydro-1H-imidazo[4,5-c]pyridin-5(4H)-yl)(4-methyloxazol-5-yl)methanone]"
3,1000 to 5000 nM,"Cc1ncoc1C(=O)N1CCc2[nH]cnc2[C@@H]1c1nc2c(F)cccc2s1 [Example 1320, (R)-(4-(4-fluorobenzo[d]thiazol-2-yl)-6,7-dihydro-1H-imidazo[4,5-c]pyridin-5(4H)-yl)(4-methyloxazol-5-yl)methanone]"
4,< 500 nM,Cc1nc(C)c(C(=O)N2CCc3[nH]cnc3[C@H]2c2nc3c(F)cccc3s2)o1 [Example 1321]
5,> 5000 nM,"Cc1nc(C)c(C(=O)N2CCc3[nH]cnc3[C@@H]2c2nc3c(F)cccc3s2)o1 [Example 1322, (R)-(2,4-dimethyloxazol-5-yl)(4-(4-fluorobenzo[d]thiazol-2-yl)-6,7-dihydro-1H-imidazo[4,5-c]pyridin-5(4H)-yl)methanone]"
6,< 500 nM,O=C(c1cnc(N2CCCC2)s1)N1CCc2[nH]cnc2[C@H]1c1nc2ccccc2s1 [Example 1323]
7,1000 to 5000 nM,"O=C(c1cnc(N2CCCC2)s1)N1CCc2[nH]cnc2[C@@H]1c1nc2ccccc2s1 [Example 1324, (R)-(4-(benzo[d]thiazol-2-yl)-6,7-dihydro-1H-imidazo[4,5-c]pyridin-5(4H)-yl)(2-(pyrrolidin-1-yl)thiazol-5-yl)methanone]"
8,< 500 nM,O=C(c1ocnc1C(F)(F)F)N1CCc2[nH]cnc2[C@H]1c1nc2ccccc2s1 [Example 1325]
9,500 to 1000 nM,"O=C(c1ocnc1C(F)(F)F)N1CCc2[nH]cnc2[C@@H]1c1nc2ccccc2s1 [Example 1326, (R)-(4-(benzo[d]thiazol-2-yl)-6,7-dihydro-1H-imidazo[4,5-c]pyridin-5(4H)-yl)(4-(trifluoromethyl)oxazol-5-yl)methanone]"
10,< 500 nM,O=C(c1ocnc1C1CC1)N1CCc2[nH]cnc2[C@H]1c1nc2ccccc2s1 [Example 1327]
11,1000 to 5000 nM,"O=C(c1ocnc1C1CC1)N1CCc2[nH]cnc2[C@@H]1c1nc2ccccc2s1 [Example 1328, (R)-(4-(benzo[d]thiazol-2-yl)-6,7-dihydro-1H-imidazo[4,5-c]pyridin-5(4H)-yl)(4-cyclopropyloxazol-5-yl)methanone]"
12,< 500 nM,O=C(c1cnc(C2CC2)o1)N1CCc2[nH]cnc2[C@H]1c1nc2c(F)cccc2s1 [Example 1329]
13,1000 to 5000 nM,"O=C(c1cnc(C2CC2)o1)N1CCc2[nH]cnc2[C@@H]1c1nc2c(F)cccc2s1 [Example 1330, (R)-(2-cyclopropyloxazol-5-yl)(4-(4-fluorobenzo[d]thiazol-2-yl)-6,7-dihydro-1H-imidazo[4,5-c]pyridin-5(4H)-yl)methanone]"
14,500 to 1000 nM,"Cc1nnc(C(=O)N2CCc3[nH]cnc3[C@H]2c2nc3cccc(F)c3s2)s1 [Example 1331, (S)-(4-(7-fluorobenzo[d]thiazol-2-yl)-6,7-dihydro-1H-imidazo[4,5-c]pyridin-5(4H)-yl)(5-methyl-1,3,4-thiadiazol-2-yl)methanone]"
15,1000 to 5000 nM,"Cc1nnc(C(=O)N2CCc3[nH]cnc3[C@@H]2c2nc3cccc(F)c3s2)s1 [Example 1332, (R)-(4-(7-fluorobenzo[d]thiazol-2-yl)-6,7-dihydro-1H-imidazo[4,5-c]pyridin-5(4H)-yl)(5-methyl-1,3,4-thiadiazol-2-yl)methanone]"
16,500 to 1000 nM,"O=C(c1cnn2cc(F)ccc12)N1CCc2[nH]cnc2[C@H]1c1nc2cc(F)ccc2s1 [Example 1333, (S)-(4-(5-fluorobenzo[d]thiazol-2-yl)-6,7-dihydro-1H-imidazo[4,5-c]pyridin-5(4H)-yl)(6-fluoropyrazolo[1,5-a]pyridin-3-yl)methanone]"
17,> 5000 nM,"O=C(c1cnn2cc(F)ccc12)N1CCc2[nH]cnc2[C@@H]1c1nc2cc(F)ccc2s1 [Example 1334, (R)-(4-(5-fluorobenzo[d]thiazol-2-yl)-6,7-dihydro-1H-imidazo[4,5-c]pyridin-5(4H)-yl)(6-fluoropyrazolo[1,5-a]pyridin-3-yl)methanone]"
18,< 500 nM,"O=C(c1cnn2ccccc12)N1CCc2[nH]cnc2[C@H]1c1nc2cccc(Br)c2s1 [Example 1335, (S)-(4-(7-bromobenzo[d]thiazol-2-yl)-6,7-dihydro-1H-imidazo[4,5-c]pyridin-5(4H)-yl)(pyrazolo[1,5-a]pyridin-3-yl)methanone]"
19,1000 to 5000 nM,"O=C(c1cnn2ccccc12)N1CCc2[nH]cnc2[C@@H]1c1nc2cccc(Br)c2s1 [Example 1336, (R)-(4-(7-bromobenzo[d]thiazol-2-yl)-6,7-dihydro-1H-imidazo[4,5-c]pyridin-5(4H)-yl)(pyrazolo[1,5-a]pyridin-3-yl)methanone]"
20,< 500 nM,O=C(c1cnc(-c2ccc(F)cn2)o1)N1CCc2[nH]cnc2[C@H]1c1nc2ccccc2s1 [Example 1337]
21,1000 to 5000 nM,"O=C(c1cnc(-c2ccc(F)cn2)o1)N1CCc2[nH]cnc2[C@@H]1c1nc2ccccc2s1 [Example 1338, (R)-(4-(benzo[d]thiazol-2-yl)-6,7-dihydro-1H-imidazo[4,5-c]pyridin-5(4H)-yl)(2-(5-fluoropyridin-2-yl)oxazol-5-yl)methanone]"
22,< 500 nM,O=C(c1cnc(-c2ccc(F)cn2)s1)N1CCc2[nH]cnc2[C@H]1c1nc2ccccc2s1 [Example 1339]
23,1000 to 5000 nM,"O=C(c1cnc(-c2ccc(F)cn2)s1)N1CCc2[nH]cnc2[C@@H]1c1nc2ccccc2s1 [Example 1340, (R)-(4-(benzo[d]thiazol-2-yl)-6,7-dihydro-1H-imidazo[4,5-c]pyridin-5(4H)-yl)(2-(5-fluoropyridin-2-yl)thiazol-5-yl)methanone]"
24,< 500 nM,O=C(c1scnc1C(F)(F)F)N1CCc2[nH]cnc2[C@H]1c1nc2ccccc2s1 [Example 1341]
25,< 500 nM,"O=C(c1scnc1C(F)(F)F)N1CCc2[nH]cnc2[C@@H]1c1nc2ccccc2s1 [Example 1342, (R)-(4-(benzo[d]thiazol-2-yl)-6,7-dihydro-1H-imidazo[4,5-c]pyridin-5(4H)-yl)(4-(trifluoromethyl)thiazol-5-yl)methanone]"
26,1000 to 5000 nM,"Cn1cc(-c2ncc(C(=O)N3CCc4[nH]cnc4[C@@H]3c3nc4ccccc4s3)o2)cn1 [Example 1343, (R)-(4-(benzo[d]thiazol-2-yl)-6,7-dihydro-1H-imidazo[4,5-c]pyridin-5(4H)-yl)(2-(1-methyl-1H-pyrazol-4-yl)oxazol-5-yl)methanone]"
27,500 to 1000 nM,Cn1cc(-c2ncc(C(=O)N3CCc4[nH]cnc4[C@H]3c3nc4ccccc4s3)o2)cn1 [Example 1344]
28,1000 to 5000 nM,"Cn1cc(-c2ncc(C(=O)N3CCc4[nH]cnc4[C@@H]3c3nc4c(F)cccc4s3)o2)cn1 [Example 1345, (R)-(4-(4-fluorobenzo[d]thiazol-2-yl)-6,7-dihydro-1H-imidazo[4,5-c]pyridin-5(4H)-yl)(2-(1-methyl-1H-pyrazol-4-yl)oxazol-5-yl)methanone]"
